According to EP1382341A1, “Use of compositions comprising glycyrrhetinic acid and benzoyl peroxide for acne treatment” (Cognis Iberia, S.L., priority 2002, dated 2004):
Converted amounts (≈) assume the structure as drawn. Read-outs that look alike come from different tables or passages of the source.

Columns and labels:
Type in all cases: cell-based
Propionibacterium acnes [1] = experiment: Agar dilution method (MIC determination); details: lowest concentration with complete inhibition of growth, 37 °C, 18 to 24 h, mean of duplicate determinations
From the text: (§1) Die antibakterielle Wirksamkeit der Wirkstoffe und Wirkstoffinischungen wurde mit Hilfe der Diffusionsmethode auf Agar-Platten bzw. der Agar-Verdünnungsmethode untersucht. Dabei wird zunächst ein rundes Filterpapier definierten Durchmessers mit der Testlösung getränkt und dieses dann auf die Oberfläche einer Agarplatte aufgebracht, welche zuvor mit den Testmikroorganismen inokuliert worden war. Anschließend wird nach definierten Zeiten die Größe der Inhibierungszonen bestimmt. Diese Technik erlaubt es insbesondere die MIC (Minimum Inhibitory Concentration) als die niedrigste Testsubstanzkonzentration zu bestimmen, mit der noch eine vollständige Inhibierung der Mikroorganismen erzielt werden kann.
(§2) Agar Verdünnungsmethode (MIC-Bestimmung). Wie oben beschrieben wurden verschiedene Agars vorbereitet, mit unterschiedlichen Konzentrationen an Testsubstanzen versetzt, homogenisiert und dann getrocknet. Anschließend erfolgte die Inokulation der Petrischalen mit jeweils 2 µl der Bakteriensuspensionen. […] Es handelt sich jeweils um den Mittelwert von Doppelbestimmungen.

Staphylococcus aureus [2] = experiment: Agar dilution method (MIC determination); details: lowest concentration with complete inhibition of growth, 37 °C, 18 to 24 h, mean of duplicate determinations
From the text: as §1, §2

[3] = system: Staphylococcus epidermidis; experiment: Agar dilution method (MIC determination); details: lowest concentration with complete inhibition of growth, 37 °C, 18 to 24 h, mean of duplicate determinations
From the text: as §1, §2

Propionibacterium acnes [4] = experiment: Agar diffusion method (inhibition zones); details: diameter of inhibition zone; Wilkins-Chalgren agar with 5 wt% sheep blood; 20 µl test substance; 18 to 24 at 37 °C, anaerobic
From the text: as §1
(§3) Agar-Diffusionsmethode. Das Inokulum wurde unter Verwendung einer frischen Kultur in einer stationären Wachstumsphase (nach ca. 18-24 h) in einer BHI-Lösung (Brain-Heart-InfüsionI) hergestellt. Die Bakteriensuspension wurde auf 0,5 MacFarland-Einheiten eingestellt, entsprechend 1,5 10^8 Kolonienbildende Einheiten (cfu)/ml; anschließend wurde die Suspension mit einer Kochsalzlösung 1/100 verdünnt, um einen Wert von 1,5 10^6 cfu/ml einzustellen. Anschließend wurde Mueller-Hinton Agar (Staphylococcus epidermis, Staphylococcus aureus) und Wilkins-Chalgrens Agar mit 5 Gew.-% Schafsblut (Propionobakterium acnes) 15 min bei 121 °C sterilisiert und dann in Petrischalen gegeben. Die Petrischalen wurden mit 2 bis 4 ml der Bakteriensuspensionen versetzt und bei Raumtemperatur getrocknet. Die Filterpapiere wurden mit 20 µl der Testsubstanzen getränkt und auf die Oberfläche der Agarplatten aufgebracht. Die inokulierten Petrischalen wurden 18 bis 24 bei 37 °C inkubiert (die Petrischalen mit Propionibacterium acnes unter anaeroben Bedingungen) und die antimikrobielle Wirksamkeit anschließend durch Bestimmung der Wachstumsinhibierungszone ermittelt. Die Ergebnisse sind in Tabelle 1 zusammengefasst. Angegeben sind ist jeweils der Durchmesser der Inhibierungsflächen in mm.

Staphylococcus aureus [5] = experiment: Agar diffusion method (inhibition zones); details: diameter of inhibition zone; Mueller-Hinton agar; filter paper with 20 µl test substance; 18 to 24 at 37 °C
From the text: as §1, §3

[6] = system: Staphylococcus epidermidis; experiment: Agar diffusion method (inhibition zones); details: diameter of inhibition zone; Mueller-Hinton agar; filter paper with 20 µl test substance; 18 to 24 at 37 °C
From the text: as §1, §3

Molecule	MIC (Propionibacterium acnes [1]; Cutibacterium acnes, read-out: MIC) [µg/mL]	MIC (Staphylococcus aureus [2]; Staphylococcus aureus, read-out: MIC) [µg/mL]	MIC ([3]; Staphylococcus epidermidis, read-out: MIC) [µg/mL]	Inhibierungszonen (Propionibacterium acnes [4]) [mm]	Inhibierungszonen (Staphylococcus aureus [5]) [mm]	Inhibierungszonen [6] [mm]	MIC (Propionibacterium acnes [1])	MIC (Staphylococcus aureus [2]) [µg/mL]	MIC [3]
O=C(OOC(=O)c1ccccc1)c1ccccc1 [A1, Benzoylperoxid]	1250 (≈ 5.16 mM)	> 10000	1250 (≈ 5.16 mM)	7	5	5	–	–	–
Glyzyrrhetinsäure-Zinksalz [B1]	–	–	–	4	5	5	1,25 mg/ml	>10000	1,25 mg/ml
